Data published in patent publication US9737607B2, “Polymer, and pharmaceutical composition employing the same” (INDUSTRIAL TECHNOLOGY RESEARCH INSTITUTE, priority 2014, dated 2017).

Tests used:
[1] = test system: Sal. Typhimurium TA98 strain; experiment: Ames test, TA98; settings: without S9, positive control 100 μL/plate
Protocol: (§1) The Ames test was carried out using Sal. Typhimurium TA98 strain and Sal. Typhimurium TA100 strain without an enzyme for activating metabolism of drugs (S9).
(§2) The Ames test was carried out using Sal. Typhimurium TA98 strain and Sal. Typhimurium TA100 strain with an enzyme for activating metabolism of drugs (S9). DMSO (100 μL/plate) was used as negative control, and (+)Benzo[α]pyrene (100 μL/plate) was used as positive control.

[2] = test system: Sal. Typhimurium TA100 strain; experiment: Ames test, TA100; settings: without S9, positive control 100 μL/plate
Protocol: as §1, §2

Structure (SMILES): Nc1ccc([N+](=O)[O-])cc1N [NOPD, 4-nitro-o-phenylenediamine]
- TA98 (CFU/plate) [1]: 1200 CFU/plate
- TA100 (CFU/plate) [2]: 1019 CFU/plate
